This assay has as its system L1210 leukemia ip in BDF1 mice, survival T/C. Put plainly: NCI In Vivo Anticancer Drug Screen. Data for tumor model L1210 Leukemia (intraperitoneal) in B6D2F1 (BDF1) mice. The note with it: higher = longer survival. In a few lines: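 Transplanted-tumor mice were given test agent; controls received vehicle only. Survival readings from the two groups were divided (treated over control).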

Setting [1] is: endpoint: mean survival time, dose: 100.0 mg/kg/injection, schedule: Q01DX001 (ip), vehicle: saline.
Setting [2] is: endpoint: mean survival time, dose: 200.0 mg/kg/injection, schedule: Q01DX001 (ip), vehicle: saline.
[3] abbreviates: endpoint: mean survival time, dose: 400.0 mg/kg/injection, schedule: Q01DX001 (ip), vehicle: saline.
Where [4] appears, read: endpoint: mean survival time, dose: 100.0 mg/kg/injection, schedule: Q01DX001 (ip), vehicle: carboxymethylcellulose (CMC).
[5] abbreviates: endpoint: mean survival time, dose: 200.0 mg/kg/injection, schedule: Q01DX001 (ip), vehicle: carboxymethylcellulose (CMC).
The mark [6] stands for this setting: endpoint: mean survival time, dose: 400.0 mg/kg/injection, schedule: Q01DX001 (ip), vehicle: carboxymethylcellulose (CMC).
The mark [7] stands for this setting: endpoint: mean survival time, dose: 100.0 mg/kg/injection, schedule: Q04DX003 (ip), vehicle: Klucel (hydroxypropylcellulose) (HPC).
Where [8] appears, read: endpoint: mean survival time, dose: 200.0 mg/kg/injection, schedule: Q04DX003 (ip), vehicle: Klucel (hydroxypropylcellulose) (HPC).
Setting [9] is: endpoint: mean survival time, dose: 400.0 mg/kg/injection, schedule: Q04DX003 (ip), vehicle: Klucel (hydroxypropylcellulose) (HPC).
The mark [10] stands for this setting: endpoint: mean survival time, dose: 100.0 mg/kg/injection, schedule: Q01DX009 (ip), vehicle: Klucel (hydroxypropylcellulose) (HPC).
[11] abbreviates: endpoint: mean survival time, dose: 400.0 mg/kg/injection, schedule: Q01DX009 (ip), vehicle: Klucel (hydroxypropylcellulose) (HPC).

“And” between values parts separate entries of the source, which are not always exact repeats. Equal values may be shown once. Inconclusive results and toxic doses are left out.

`CC(NC1=NCCO1)c1cccc2ccccc12` (configuration not stated): the T/C is 94 % of control (endpoint: mean survival time, dose: 25.0 mg/kg/injection, schedule: Q01DX009 (ip), vehicle: saline with Tween-80); 94 % of control (endpoint: mean survival time, dose: 50.0 mg/kg/injection, schedule: Q01DX009 (ip), vehicle: saline with Tween-80); 96 % of control (endpoint: mean survival time, dose: 100.0 mg/kg/injection, schedule: Q04DX003 (ip), vehicle: saline with Tween-80); 94 % of control (endpoint: mean survival time, dose: 200.0 mg/kg/injection, schedule: Q04DX003 (ip), vehicle: saline with Tween-80); 89 % of control (endpoint: mean survival time, dose: 400.0 mg/kg/injection, schedule: Q04DX003 (ip), vehicle: saline with Tween-80).
As to `O=C(O)c1ccc(CCc2cccnc2)cc1`, the T/C was 96 % of control (endpoint: mean survival time, dose: 100.0 mg/kg/injection, schedule: Q01DX001 (ip), vehicle: saline with Tween-80) and 98 % of control (endpoint: mean survival time, dose: 200.0 mg/kg/injection, schedule: Q01DX001 (ip), vehicle: saline with Tween-80).
Turning to `CCCCC(=O)N1CCOCC1`, the T/C was 107 % of control (endpoint: mean survival time, dose: 100.0 mg/kg/injection, schedule: Q04DX002 (ip), vehicle: saline); 101 % of control (endpoint: mean survival time, dose: 200.0 mg/kg/injection, schedule: Q04DX002 (ip), vehicle: saline); 107 % of control (endpoint: mean survival time, dose: 400.0 mg/kg/injection, schedule: Q04DX002 (ip), vehicle: saline).
For `CC(C)(CCN(CC(=O)O)CC(=O)O)[N+](=O)[O-]`, the T/C by setting is: under setting [1], 112 % of control; under setting [2], 96 % of control; under setting [3], 102 % of control.
Turning to `O=C(Nc1ccc(S(=O)(=O)N2CCCCC2)cc1)OC(c1ccccc1)(c1ccccc1)c1ccccc1`, the T/C is, setting by setting: under setting [4], 94 % of control; under setting [5], 91 % of control; under setting [6], 89 % of control.
On to `CC(C)(C)C#N`, for which the T/C was 109 % of control under setting [1], 101 % of control under setting [2] and 95 % of control under setting [3].
Turning to `Oc1ccc(Br)cc1Sc1cc(Br)ccc1O`, the T/C under setting [4] was 100 % of control; the T/C under setting [1] is 97 % of control; the T/C under setting [5] is 103 % of control; the T/C under setting [2] is 95 % of control; the T/C under setting [6] was 95 % of control; the T/C under setting [3] was 95 % of control.
Turning to `CCN=C1C=C/C(=C(/c2ccc(NCC)c(C)c2)c2cc(O)c(S(=O)(=O)O)cc2S(=O)(=O)O)C=C1C`, the T/C by setting is: (endpoint: mean survival time, dose: 50.0 mg/kg/injection, schedule: Q01DX009 (ip), vehicle: saline) 97 % of control; (endpoint: mean survival time, dose: 100.0 mg/kg/injection, schedule: Q01DX009 (ip), vehicle: saline) 97 % of control; (endpoint: mean survival time, dose: 200.0 mg/kg/injection, schedule: Q01DX009 (ip), vehicle: saline) 104 % of control.
Regarding `NNC(=O)c1n[nH]c(C2OC(CO)C(O)C2O)c1N` (configuration not stated), the T/C is 100 % of control (endpoint: mean survival time, dose: 100.0 mg/kg/injection, schedule: Q01DX005 (ip), vehicle: saline) and 94 % of control (endpoint: mean survival time, dose: 200.0 mg/kg/injection, schedule: Q01DX005 (ip), vehicle: saline).
`O=C(O)COc1ccc(C2CCc3ccccc32)cc1` (configuration not stated): the T/C by setting is: (endpoint: mean survival time, dose: 75.0 mg/kg/injection, schedule: Q01DX001 (ip), vehicle: Klucel (hydroxypropylcellulose) (HPC)) 104 % of control; (endpoint: mean survival time, dose: 150.0 mg/kg/injection, schedule: Q01DX001 (ip), vehicle: Klucel (hydroxypropylcellulose) (HPC)) 101 % of control; (endpoint: mean survival time, dose: 300.0 mg/kg/injection, schedule: Q01DX001 (ip), vehicle: Klucel (hydroxypropylcellulose) (HPC)) 101 % of control.
For `c1ccc2cc(SCCCN3CCOCC3)ccc2c1`, the T/C (endpoint: mean survival time, dose: 100.0 mg/kg/injection, schedule: Q01DX009 (ip), vehicle: saline sonified) was 97 % of control; the T/C under setting [7] was 95 % of control; the T/C (endpoint: mean survival time, dose: 200.0 mg/kg/injection, schedule: Q01DX009 (ip), vehicle: saline sonified) is 116 % of control; the T/C under setting [8] is 95 % of control; the T/C under setting [9] was 90 % of control.
As for `Cc1nc2cc(Cc3ccccc3)ccc2o1`, the T/C is 107 % of control (endpoint: mean survival time, dose: 100.0 mg/kg/injection, schedule: Q04DX003 (ip), vehicle: saline sonified); 105 % of control (endpoint: mean survival time, dose: 200.0 mg/kg/injection, schedule: Q04DX003 (ip), vehicle: saline sonified); 107 % of control (endpoint: mean survival time, dose: 400.0 mg/kg/injection, schedule: Q04DX003 (ip), vehicle: saline sonified).
Regarding `O=C(COC(=O)c1ccccc1O)c1ccc(-c2ccccc2)cc1`, the T/C is 94 % of control under setting [1], 88 % of control under setting [2] and 88 % of control under setting [3].
For `COc1ccc(-c2nc(N)nc3c2CN(CCC(=O)O)C3=O)cc1`, the T/C is 100 % of control under setting [1], 95 % of control under setting [2] and 94 % of control under setting [3].
Consider `O=C(Oc1ccc(S(=O)(=O)F)cc1F)c1ccccc1Cl`, for which the T/C is, setting by setting: (endpoint: mean survival time, dose: 100.0 mg/kg/injection, schedule: Q04DX002 (ip), vehicle: Klucel (hydroxypropylcellulose) (HPC)) 95 % of control; (endpoint: mean survival time, dose: 200.0 mg/kg/injection, schedule: Q04DX002 (ip), vehicle: Klucel (hydroxypropylcellulose) (HPC)) 89 % of control.
Take `Cc1ccc(C)c(NC(=O)Nc2ccc(Nc3ccccc3)cc2)c1`: the T/C runs as follows: under setting [10], 88 % of control; under setting [11], 91 % of control.
For `Nc1c(Cl)cc2c(c1Cl)Cc1c-2cc(Br)c(N)c1Br`, the T/C (endpoint: median survival time, dose: 5.0 mg/kg/injection, schedule: Q04DX003 (ip), vehicle: saline) is 121 % of control; the T/C (endpoint: median survival time, dose: 10.0 mg/kg/injection, schedule: Q04DX003 (ip), vehicle: saline) was 153 % of control; the T/C (endpoint: median survival time, dose: 20.0 mg/kg/injection, schedule: Q04DX003 (ip), vehicle: saline) is 180 % of control; the T/C (endpoint: median survival time, dose: 40.0 mg/kg/injection, schedule: Q04DX003 (ip), vehicle: saline) was 223 % of control; the T/C (endpoint: median survival time, dose: 50.0 mg/kg/injection, schedule: Q07DX003 (ip), vehicle: saline) is 211 % of control; the T/C (endpoint: median survival time, dose: 80.0 mg/kg/injection, schedule: Q04DX003 (ip), vehicle: saline) is 223 % of control. Moreover, the T/C (endpoint: median survival time, dose: 100.0 mg/kg/injection, schedule: Q07DX003 (ip), vehicle: saline) was 202 % of control; the T/C (endpoint: median survival time, dose: 200.0 mg/kg/injection, schedule: Q07DX003 (ip), vehicle: saline) is 54 % of control; the T/C (endpoint: median survival time, dose: 400.0 mg/kg/injection, schedule: Q07DX003 (ip), vehicle: saline) is 53 % of control.
For the compound `CC(=O)OCC1OC(n2cc(C)c(=O)[nH]c2=O)C(NC(=O)C(Cl)(Cl)Cl)C(OC(C)=O)C1OC(C)=O` (configuration not stated), the T/C runs as follows: (endpoint: mean survival time, dose: 50.0 mg/kg/injection, schedule: Q01DX001 (ip), vehicle: carboxymethylcellulose (CMC)) 105 % of control; under setting [4], 96 % of control; under setting [5], 100 % of control; under setting [6], 103 % of control.
Regarding `CC(=O)Oc1cc(O)c2c(c1)OC(C)(C)CC2=O`, the T/C was 98 % of control under setting [10]; 93 % of control under setting [7]; 98 % of control (endpoint: mean survival time, dose: 200.0 mg/kg/injection, schedule: Q01DX009 (ip), vehicle: Klucel (hydroxypropylcellulose) (HPC)); 100 % of control under setting [8]; 96 % of control under setting [11]; 97 % of control under setting [9].
As to `O=NN(CCCl)C(=O)NC1[C@H](O)CCC[C@@H]1O` (some centres not stated), the T/C reads like this: (endpoint: mean survival time, dose: 2.6 mg/kg/injection, schedule: Q01DX001 (ip), vehicle: saline) 228 % of control; (endpoint: mean survival time, dose: 4.0 mg/kg/injection, schedule: Q01DX001 (ip), vehicle: saline) 385 % of control; (endpoint: mean survival time, dose: 6.0 mg/kg/injection, schedule: Q01DX001 (ip), vehicle: saline) 455 % of control; (endpoint: mean survival time, dose: 9.0 mg/kg/injection, schedule: Q01DX001 (ip), vehicle: saline) 505 % of control; (endpoint: mean survival time, dose: 14.0 mg/kg/injection, schedule: Q01DX001 (ip), vehicle: saline) 340 % of control and 502 % of control; (endpoint: mean survival time, dose: 22.0 mg/kg/injection, schedule: Q01DX001 (ip), vehicle: saline) 256 % of control and 309 % of control.
Turning to `CCc1c(N)nc(N)nc1Nc1ccc(Cl)c(Cl)c1`, the T/C (endpoint: mean survival time, dose: 100.0 mg/kg/injection, schedule: Q01DX Z (ip), vehicle: methylcellulose (MC)) was 96 % of control.
For the compound `CC(=O)Nc1ccc2c(ccc3cccc[n+]32)c1`, the T/C is, setting by setting: (endpoint: mean survival time, dose: 10.0 mg/kg/injection, schedule: Q01DX001 (ip), vehicle: saline) 93 % of control; (endpoint: mean survival time, dose: 20.0 mg/kg/injection, schedule: Q01DX001 (ip), vehicle: saline) 98 % of control.
As to `NCC1CC2CCC1CC2` (configuration not stated), the T/C (endpoint: mean survival time, dose: 12.5 mg/kg/injection, schedule: Q01DX009 (ip), vehicle: alcohol) is 106 % of control; the T/C (endpoint: mean survival time, dose: 25.0 mg/kg/injection, schedule: Q01DX009 (ip), vehicle: alcohol) is 101 % of control; the T/C (endpoint: mean survival time, dose: 50.0 mg/kg/injection, schedule: Q01DX009 (ip), vehicle: alcohol) was 106 % of control.

Values taken from PubChem BioAssay AID248 (DTP/NCI, 2004).
